Reference: US8362072B2, “BRCA1-based breast or ovarian cancer treatment agents and methods of use” (University of Kansas, priority 2007, dated 2013)
pEC50: −log10 of the molar value.

Columns and labels:
human BRCA1 promoter = assay: BRCA1-luciferase reporter assay (Steady-Glo) in stably transfected MCF7 cells; assay type: cell-based; settings: for pEC50 / EC90: MCF7-BRCA1-luciferase cells, dilution series; for BRCA1-luciferase activity (in words): MCF7 pGL4.14-hBRCA1.3 cells
Protocol: Hygromycin selected MCF7 cells were seeded in 384-well tissue culture plates. The first two columns of each plate were empty so as to include established positive and negative controls. Each of the remaining 352 wells contained a compound to be screened. MCF7 cells were incubated with the compounds for 48 hours. Luciferase activity was measured using the Steady Glo Luciferase Assay System (Promega). Briefly, 5×10^6 MCF7 cells were transfected with […] of purified pGL4.14 containing the human BRCA1 promoter (pGL4.14-hBRCA) with Effectene as per manufacturers protocol (Qiagen). Stable transfectants were selected with […] Hygromicin B. 1×10^5 or 2×10^5 stable transfectants were tested for luciferase activity with the Steady-Glo Luciferase Assay System (Promega).
Hygromycin selected MCF-7 cells (e.g., MCF7 clone pGL4.14-hBRCA1.3) stably transfected with the human BRCA1-luciferase reporter construct (e.g., pGL4.14-hBRCA1.3) were seeded in 384-well white tissue culture plates (Becton Dickenson, San Diego, Calif.) at 1×10^4 cells/well. These cells were then stimulated with indicated concentrations of genistein (Sigma-Aldrich, St. Louis, Mo.) for 0, 6, 9, 24 and 48 hours. Luciferase activity was measured using the Steady Glo Luciferase Assay System (Promega). The data shown in FIG. 3A is representative of 3 individual experiments.
Two different chemical libraries were screened for the ability to enhance BRCA1 gene expression. To examine the effects of each compound on BRCA1 expression, the human BRCA1 promoter was cloned and inserted upstream of the firefly luciferase gene in the plasmid pGL4.14 (BRCA1-Luc) (Promega), as described above. The ER positive human breast cancer cell line, MCF7, was transfected and stable transfectants were selected with hygromycin.
Briefly, compounds were plated in a 384 well plate in a total volume of 20 μl. A ten point dilution series was used at concentrations—100 µM, 10 μM, 1 μM, 100 nM, 10 nM, 1 nM, 0.1 nM, 0.01 nM, 0.0001 nM, 0 (DMSO vehicle only). A second dilution series of 100 μM, 32.5 μM, […], 3.6 μM, 1.2 μM, 400 nM, 132.2 nM, 45 nM, 14.8 nM, 5 nM, and 1.65 nM was also used. MCF7-BRCA1-luciferase cells were added to the compounds at a concentration of 1×10^4 cells/well in a volume of 25 μl. The 384 well plates, containing the compounds+cells, were then incubated at 37° C. for 48 hours. After 48 hours, luciferase activity was measured with the Steady-Glo® Luciferase Assay System (Promega, Madison, Wis.).

MCF7 cells = assay: Cell viability of MCF7 cells (CellTiter 96 AQueous One); assay type: cell-based, human; settings: 48 hours
Protocol: Additionally, the compounds were tested for cell viability. Compounds were plated at 2× in 50 μl MEM in triplicate in a clear 96 well tissue culture plate. A ten point dilution series was used at concentrations—100 μM, 10 μM, 1 μM, 100 nM, […], 1 nM, 0.1 nM, 0.01 nM, 0.0001 nM, 0 (DMSO vehicle only). MCF7 cells (5×10^3) were added in a volume of 50 μl MEM to the appropriate wells, diluting the compounds to 1×. Cells were incubated at 37° C. for 48 hours. 20 μl of CellTiter 96® AQueous One Solution Reagent (Promega) was added to each well and incubated for 3 hours at 37° C. Absorbance was measured at 490 nm using the Perkin Elmer Victor 3V plate reader. Absorbance signals were normalized to DMSO vehicle control and were expressed as percent viable.

BRCA1 protein = BRCA1 protein expression in MCF7 cells by Western blot; assay type: cell-based, human; settings: 48 hours, compared to DMSO
Protocol: Compounds 29 and 30 were studied for BRCA1 and actin (e.g., housekeeping gene for normalization) protein expression. Briefly, MCF7 cells (2×10^6) in 2 ml MEM were plated in a 6 well tissue culture plate and were either left nonstimulated or treated with DMSO (vehicle control), […] Genistein, or 3 different concentrations of indicated test compound—3.65 μM, […], 32.5 μM. Following incubation at 37° C. for 48 hours, the media was removed and the cells were washed 1× with 500 μl of ice cold PBS. Another 500 μl of ice cold PBS was then added and the cells were scraped off the well and transferred to a microcentrifuge tube. To ensure all cells were removed from the well, an additional […] of ice cold PBS was added to the well and any remaining cells were combined with the initial cell harvest into the microcentrifuge tube. The cells were then pelleted by centrifugation for 5 min at 3000 rpm, 4° C. The supernate was removed and the pellet was then lysed in 150 μl of ice cold RIPA buffer+1× protease inhibitors, on ice for 30 minutes, vortexing occasionally. The cellular debris was then removed by centrifugation for 20 minutes at 11,000 rpm, 4° C. The remaining supernate, containing the extracted proteins, was then transferred to a microcentrifuge tube and quantified using the Bio-Rad DC assay. 100 μg of protein+1×SDS-PAGE sample buffer was loaded onto an 8% Tris glycine gel. The proteins were separated in a tris glycine running buffer at 125 volts for 90 minutes. The proteins were then transferred out of the gel onto PVDF in an overnight transfer with 20% methanol at 35 volts, 4° C. The PVDF membrane was then blocked with 5% milk/PBST (0.1%) for 1 hour at room temperature (RT). BRCA1 protein was detected using anti-BRCA1 (Ab-1, EMD Biosciences) at a 1:250 dilution in 3% milk/PBST, overnight at 4° C. […] To monitor equal protein loading, actin was detected using anti-actin at a 1:200,000 dilution in 5% milk/PBST for 1 hr at RT. […] Chemiluminescence was detected using the SuperSignal West Femto kit made by Pierce Biotechnology and the UVP imaging center. […]

Structure (SMILES)	pEC50 (human BRCA1 promoter; Homo sapiens, MCF7, 48 h)	EC90 (human BRCA1 promoter; Homo sapiens, 48 hours)	further results
Fc1cccc(CNc2ccc3[nH]c(-c4ccco4)nc3c2)c1 [JN1-76]	5.62	5.94 µM	BRCA1-luciferase activity (in words) (human BRCA1 promoter; 48 hours): rank with the other top compounds and genistein
COc1ccccc1OCC(=O)O/N=C(\N)c1ccccn1 [Cmpd 13]	4.16	377 µM	
Cc1ccc(-c2nc3ccc(NCc4cccs4)cc3o2)cc1 [Cmpd 25]			pEC50 (human BRCA1 promoter; 48 hours): 5.06
Cc1ccc(/C(O)=C/C=N/c2cccc(Cl)c2C)cc1 [Cmpd 21]	4.95	~9.72 µM	
O/N=C(\CSc1nc2ccccc2[nH]1)c1ccccc1 [Cmpd 11]	5.17	80.5 µM	BRCA1-luciferase activity (in words) (human BRCA1 promoter; 48 hours): comparatively superior to Compound 13
Cc1cc(C(=O)Nc2ccc(N3CCOCC3)cc2)ccc1[N+](=O)[O-] [Cmpd 3]	5.06	47.3 µM	BRCA1-luciferase activity (in words) (human BRCA1 promoter; 48 hours): comparatively superior
Oc1c(F)cccc1/C=N/c1ccc2oc(-c3ccccc3)nc2c1 [Cmpd 1]	5.17	54.9 µM	toxicity (cell viability) compared to genistein (MCF7 cells): less toxic compared to genistein
Fc1ccc(-c2nnc(-c3ccc(F)cc3)o2)cc1 [Cmpd 6]	5.79	24.2 µM	
NNC(=O)c1nc(-c2ccccc2)cc(-c2ccccc2)n1 [Cmpd 27]		0.00186 µM	
Cc1cccc(/C=N/c2ccc3[nH]c(-c4ccco4)nc3c2)c1 [JN1-72]	4.59	110 µM	
Cc1ccc(C(=O)Nc2ccc3c(c2)oc2ccccc23)o1 [Cmpd 17]	6.02	2.85 µM	
Cn1nnc(-c2ccc(OCc3ccccc3F)cc2)n1 [Cmpd 12]	5.78	15.8 µM	BRCA1-luciferase activity (in words) (human BRCA1 promoter; 48 hours): comparatively superior to Compound 13
N/C(=N\OC(=O)Cc1cccs1)c1ccc(Cl)cc1 [Cmpd 8]	2.67		
O=C(COc1cccc2cccnc12)N1CCc2ccccc21 [Cmpd 16]		~38.8 µM	
COc1ccc(-c2nc3cc(C)ccc3o2)cc1N [Cmpd 4]	6.14	1.77 µM	
O=c1c(-c2ccc(O)cc2)coc2cc(O)cc(O)c12 [Genistein, genistein, reference compound]	4.84	25 µM	BRCA1 protein expression (BRCA1 protein): increase in BRCA1 protein; BRCA1-luciferase activity (in words) (human BRCA1 promoter; 48 hours): dose-dependent increase in BRCA1-luciferase activity; BRCA1-luciferase activity (in words) (human BRCA1 promoter; 48 hours, listed as genistein): increase in BRCA1-luciferase activity
CC(C)c1ccc(OCC(=O)O/N=C(\N)c2ccncc2)c(Br)c1 [Cmpd 14]	3.97	998 µM	BRCA1-luciferase activity (in words) (human BRCA1 promoter; 48 hours): comparatively superior to Compound 13
Cc1ccc(-c2nc3ccc(NCc4cccs4)cc3o2)cc1 [Cmpd 26]		366 µM	pEC50 (human BRCA1 promoter; 48 hours): 4.54

Structure (SMILES)	pEC50 (human BRCA1 promoter; Homo sapiens, MCF7, 48 h)	EC90 (human BRCA1 promoter; Homo sapiens, 48 hours)	further results
CC(=O)c1ccc(/N=C/c2ccc(OCc3ccc(F)cc3)cc2)cc1 [Cmpd 31]	5.31	71.5 µM	
Cc1[nH]n(-c2ccc([N+](=O)[O-])cc2)c(=O)c1/C=N/C1CCCC1 [Cmpd 18]	4.95	17.2 µM	
Clc1cccc(/C=N/c2ccc3[nH]c(-c4ccco4)nc3c2)c1 [JN1-77]	4.46	196 µM	
O=C(Nc1ccc(Br)cn1)c1ccc(Oc2ccccc2)cc1 [Cmpd 28]	5.16		
c1ccc(CNc2ccc3[nH]c(-c4ccco4)nc3c2)cc1 [JN1-68]	5.45	8.84 µM	BRCA1-luciferase activity (in words) (human BRCA1 promoter; 48 hours): rank with the other top compounds and genistein
Fc1ccc(Nc2nc(-c3ccccc3)cs2)cc1 [Cmpd 5]	4.94	~13.8 µM	
COc1ccc(/C(O)=C\C=N\c2ccccc2OC)cc1 [Cmpd 22]	4.96	20.7 µM	
COc1ccc2c(c1OC)C(=O)N(c1ccc(C)cc1)C2 [Cmpd 32]	5.03	46.8 µM	
Fc1cccc(/C=N/c2ccc3[nH]c(-c4ccco4)nc3c2)c1 [JN1-78]	4.76	49.4 µM	
CC(=O)c1cc(C#N)c(SC/C=C/c2ccccc2)nc1C [Cmpd 19]	4.69	79.4 µM	
N/C(=N\OC(=O)c1ccoc1)c1ccc(Br)cc1 [Cmpd 20]	4.30	170 µM	
CC(C)(C)C(=O)Nc1cccc(C(=O)Nc2ccc(Cl)cc2)c1 [Cmpd 2]	4.15	967 µM	toxicity (cell viability) compared to genistein (MCF7 cells): less toxic compared to genistein
Cc1cccc(-c2noc(-c3cccs3)n2)c1 [Cmpd 10]	6.66	2.56 µM	
O=c1c(-c2ccc(O)cc2)coc2cc(O)ccc12 [Daidzein, reference compound]			BRCA1-luciferase activity (in words) (human BRCA1 promoter; 48 hours): dose-dependent increase in BRCA1-luciferase activity
COc1ccc(/C=N/c2ccc3[nH]c(-c4ccccc4)nc3c2)cc1OC [Cmpd 23]	4.97	~11.8 µM	
O=C(Nc1ccc(Cl)c(Cl)c1)c1ccccc1Br [Cmpd 9]	5.89	10.1 µM	BRCA1-luciferase activity (in words) (human BRCA1 promoter; 48 hours): comparatively superior, but similar to Compound 8 and 10
O=C(CSc1nc(=O)cc(O)[nH]1)c1ccccc1 [Cmpd 7]	2.69	~63700 µM	
Clc1cccc(CNc2ccc3[nH]c(-c4ccco4)nc3c2)c1 [JN1-82]	5.69	4.94 µM	BRCA1-luciferase activity (in words) (human BRCA1 promoter; 48 hours): rank with the other top compounds and genistein
